Structures can show the parent of a compound that is named as a salt.

For orientation: EC50 means the concentration at which the effect is half-maximal.

For the assay, the system named is NQO1 specific enzyme activity in BEAS-2B cells. The assay can be described thus: BEAS-2B NQO1 MTT assay. It is filed as cell-based. The conditions noted are these: Homo sapiens, BEAS-2B, 48 h, BEAS-2B cells, 48 hours with compound, MTT readout; read-out: EC50 of NQO1 specific activity induction. The method, boiled down:
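BEAS-2B cells treated with compound 48 h at 37° C, 5% CO2, then lysed; NQO1 activity in lysate measured kinetically by MTT cocktail at Absorbance 570 nm over 30 min. EC50 for induction from Delta OD/min versus log concentration, 3-parameter fit; Cell Titer Glo run on lysate aliquot.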
With `Cc1ccc(C(CC(=O)O)c2ccc3c(nnn3C)c2C)cc1CN1Cc2ccccc2OC(C)C1` (centres unmarked) [Example 3, trifluoroacetic Acid Salt], the half-maximal effective concentration (EC50) was 1000 to 10000 nM.

For `Cc1ccc(C(CC(=O)O)c2ccc(F)cc2C)cc1Cn1ccnc1CC1CCCCC1` (centres unmarked) [Example 135, 3-(3-((2-(Cyclohexylmethyl)-1H-imidazol-1-yl)methyl)-4-methylphenyl)-3-(4-fluoro-2-methylphenyl)propanoic Acid], the EC50 lay in the range of 10 to 100 nM.

As for `Cc1ccc([C@H](CC(=O)O)c2ccc3c(nnn3C)c2C)cc1CN1Cc2ccccc2OC(C)(C)C1` [Example 109, (S)-3-(1,4-dimethyl-1H-benzo[d][1,2,3]triazol-5-yl)-3-(3-((2,2-dimethyl-2,3-dihydrobenzo[f][1,4]oxazepin-4(5H)-yl)methyl)-4-methylphenyl)propanoic Acid, Formic Acid Salt], the 50% effective concentration (EC50) is 100 to 1000 nM.

As to `Cc1ccc([C@H](c2ccc3c(nnn3C)c2C)[C@H](C)C(=O)O)cc1CN1Cc2cnccc2OC(C)(C)C1` [Example 198, (2S,3R)-3-(1,4-Dimethyl-1H-benzo[d][1,2,3]triazol-5-yl)-3-(3-((2,2-dimethyl-2,3-dihydropyrido[3,4-f][1,4]oxazepin-4(5H)-yl)methyl)-4-methylphenyl)-2-methylpropanoic acid, 0.1 formic acid salt], the 50% effective concentration (EC50) fell in the range of 10 to 100 nM.

With `CC[C@@H]1CN(Cc2cc([C@H](CC(=O)O)c3ccc4c(nnn4CC)c3F)ccc2C)Cc2cnccc2O1` [Example 53, (S)-3-(3-(((R)-2-Ethyl-2,3-dihydropyrido[3,4-f][1,4]oxazepin-4(5H)-yl)methyl)-4-methylphenyl)-3-(1-ethyl-4-fluoro-1H-benzo[d][1,2,3]triazol-5-yl)propanoic acid], the EC50 fell in the range of 100 to 1000 nM.

Turning to `CCC1(C)CN(Cc2cc([C@@H](c3ccc4c(nnn4C)c3C)C(C)(C)C(=O)O)ccc2C)Cc2ccccc2O1` (stereo partly drawn) [Example 240, (3S)-3-(1,4-Dimethyl-1H-benzo[d][1,2,3]triazol-5-yl)-3-(3-((2-ethyl-2-methyl-2,3-dihydrobenzo[f][1,4]oxazepin-4(5H)-yl)methyl)-4-methylphenyl)-2,2-dimethylpropanoic Acid], the 50% effective concentration (EC50) was in the range of 1 to 10 nM.

For `Cc1ccc(C(c2ccc3c(nnn3C)c2C)C(C)(C)C(=O)O)cc1Cn1ccnc1CN1CCO[C@H](C)C1` (stereo partly drawn) [Example 144, 3-(1,4-Dimethyl-1H-benzo[d][1,2,3]triazol-5-yl)-2,2-dlmethyl-3-(4-methyl-3-((2-(((R)-2-methylmorpholino)methyl)-1H-imidazol-1-yl)methyl)phenyl) propanoic acid, trifluoroacetic acid salt], the EC50 was 100 to 1000 nM.

Take `Cc1ccc([C@H](CC(=O)O)c2ccc3c(nnn3C)c2C)cc1CN1CCCC(Cn2cccn2)C1` (stereo partly drawn) [Example 215, (3S)-3-(3-((3-((1H-Pyrazol-1-yl)methyl)piperidin-1-yl)methyl)-4-methylphenyl)-3-(1,4-dimethyl-1H-benzo[d][1,2,3]triazol-5-yl)propanoic Acid]: the EC50 lay within 1000 to 10000 nM.

In the case of `Cc1ccc(C(CC(=O)NS(C)(=O)=O)c2ccc3c(nnn3C)c2C)cc1CN1Cc2ccccc2OC(C)(C)C1` (centres unmarked) [Example 187, 3-(1,4-Dimethyl-1H-benzo[d][1,2,3]triazol-5-yl)-3-(3-((2,2-dimethyl-2,3-dihydrobenzo[f][1,4]oxazepin-4(5H)-yl)methyl)-4-methylphenyl)-N-(methylsulfonyl)propanamide], the EC50 lay within 100 to 1000 nM.

Take `CC[C@@H]1CN(Cc2cc([C@@H](c3ccc4c(nnn4C)c3C)C(C)(C)C(=O)O)ccc2C)Cc2c(ccnc2F)O1` [Example 222, (S)-3-(1,4-Dimethyl-1H-benzo[d][1,2,3]triazol-5-yl)-3-(3-(((R)-2-ethyl-6-fluoro-2,3-dihydropyrido[3,4-f][1,4]oxazepin-4(5H)-yl)methyl)-4-methylphenyl)-2,2-dimethylpropanoic Acid]: the EC50 was under 1 nM.

For the compound `CC[C@@H]1CN(Cc2cc([C@H](CC(=O)O)c3ccc4c(nnn4C)c3C)ccc2C)Cc2cnccc2O1` [Example 50, (S)-3-(1,4-Dimethyl-1H-benzo[d][1,2,3]triazol-5-yl)-3-(3-(((R)-2-ethyl-2,3-dihydropyrido[3,4-f][1,4]oxazepin-4(5H)-yl)methyl)-4-methylphenyl)propanoic acid, formic acid salt], the concentration giving a half-maximal response (EC50) was in the range of 10 to 100 nM.

With `CC[C@@H]1CN(Cc2cc(C(c3ccc4c(nnn4C)c3C)C(C)(C)C(=O)O)ccc2C)Cc2ccc(F)cc2O1` (stereo partly drawn) [Example 33, 3-(1,4-Dimethyl-1H-benzo[d][1,2,3]triazol-5-yl)-3-(3-(((R)-2-ethyl-8-fluoro-2,3-dihydrobenzo[f][1,4]oxaz-epin-4(5H)-yl)methyl)-4-methylphenyl)-2,2-dimethylpropanoic acid, formic acid salt], the EC50 is 10 to 100 nM.

Consider `CC[C@@H]1CN(Cc2nc(C(c3ccc4c(nnn4C)c3C)C(C)(C)C(=O)O)ccc2C)Cc2cnccc2O1` (stereo partly drawn) [Example 212, 3-(1,4-Dimethyl-1H-benzo[d][1,2,3]triazol-5-yl)-3-(6-(((R)-2-ethyl-2,3-dihydropyrido[3,4-f][1,4]oxazepin-4(5H)-yl)methyl)-5-methylpyridin-2-yl)-2,2-dimethylpropanoic Acid, Formic Acid Salt], for which the EC50 was 10 to 100 nM.

As for `Cc1ccc([C@H](CC(=O)O)c2ccc3c(nnn3C)c2C)cc1CN1Cc2ccc(F)cc2OC(C)(C)C1` [Example 63, (S)-3-(1,4-Dimethyl-1H-benzo[d][1,2,3]triazol-5-yl)-3-(3-((8-fluoro-2,2-dimethyl-2,3-dihydrobenzo[f][1,4]oxazepin-4(5H)-yl)methyl)-4-methylphenyl)propanoic acid], the concentration for a half-maximal effect (EC50) lay in the range of 10 to 100 nM.

Take `Cc1c(C(CC(=O)O)c2ccc(Cl)c(CN3CCCC(O)C3)c2)ccc2c1nnn2C` (centres unmarked) [Example 161, 3-(4-chloro-3-((3-hydroxypiperidin-1-yl)methyl)phenyl)-3-(1,4-dimethyl-1H-benzo[d][1,2,3]triazol-5-yl)propanoic Acid]: the EC50 was in the range of 1000 to 10000 nM.

As to `Cc1ccc(C(CC(=O)O)c2ccc3c(nnn3C)c2C)cc1CN1Cc2ccc(C#N)cc2OC(C)(C)C1` (single isomer, unassigned) [Example 173], the concentration for a half-maximal effect (EC50) fell in the range of 10 to 100 nM.

With `CCN1CCN(Cc2cc(C(c3ccc4c(nnn4C)c3C)C(C)(C)C(=O)O)ccc2C)Cc2ccccc21` (centres unmarked) [Example 111, 3-(1,4-dimethyl-1H-benzo[d][1,2,3]triazol-5-yl)-3-(3-((1-ethyl-2,3-dihydro-1H-benzo[e][1,4]diazepin-4(5H)-yl)methyl)-4-methylphenyl)-2,2-dimethylpropanoic Acid, Formic Acid Salt], the half-maximal effective concentration (EC50) was 10 to 100 nM.

In the case of `CCn1nnc2c(F)c([C@H](c3ccc(C)c(CN4Cc5cccnc5OC(C)(C)C4)c3)[C@@H](C)C(=O)O)ccc21` [Example 195, (2R,3S)-3-(3-((2,2-Dimethyl-2,3-dihydropyrldo[3,2-f][1,4]oxazepin-4(5H)-yl)methyl)-4-methylphenyl)-3-(1-ethyl-4-fluoro-1H-benzo[d][1,2,3]triazol-5-yl)-2-methylpropanoic acid], the 50% effective concentration (EC50) lay within 10 to 100 nM.

As to `Cc1ccc(C(c2ccc3c(nnn3C)c2C)C(C)(C)C(=O)O)cc1Cn1ccnc1CN1CCCCC1` (centres unmarked) [Example 123, 3-(1,4-Dimethyl-1H-benzo[d][1,2,3]triazol-5-yl)-2,2-dimethyl-3-(4-methyl-3-((2-(piperidin-1-ylmethyl)-1H-imidazol-1-yl)methyl)phenyl)propanoate, Sodium salt], the EC50 was 10 to 100 nM.

As for `Cc1ccc(C(CC(=O)O)c2ccc3c(nnn3C)c2C)cc1CN1Cc2ccccc2OC2(CCC2)C1` (centres unmarked) [Example 244, 3-(3-((3H-Spiro[benzo[f][1,4]oxazepine-2,1′-cyclobutan]-4(5H)-yl)methyl)-4-methylphenyl)-3-(1,4-dimethyl-1H-benzo[d][1,2,3]triazol-5-yl)propanoic Acid], the EC50 was 10 to 100 nM.

`Cc1c(C(CC(=O)O)c2ccc(F)c(CN3Cc4ccccc4O[C@@H](C)C3)c2)ccc2c1nnn2C` (stereo partly drawn) [Example 95, 3-(1,4-Dimethyl-1H-benzo[d][1,2,3]triazol-5-yl)-3-(4-fluoro-3-(((S)-2-methyl-2,3-dihydrobenzo[f][1,4]oxazepin-4(5H)-yl)methyl)phenyl)propanoic Acid, Formic Acid Salt]: the half-maximal effective concentration (EC50) fell in the range of 100 to 1000 nM.

For the compound `CC[C@@H]1CN(Cc2cc(C(CC(=O)O)c3ccc4c(nnn4C)c3C)ccc2C)Cc2c(F)cccc2O1` (stereo partly drawn) [Example 83, 3-(1,4-Dimethyl-1H-benzo[d][1,2,3]triazol-5-yl)-3-(3-(((R)-2-ethyl-6-fluoro-2,3-dihydrobenzo[f][1,4]oxazepin-4(5H)-yl)methyl)-4-methylphenyl)propanoic acid], the 50% effective concentration (EC50) was 100 to 1000 nM.

Regarding `CCC1CN(Cc2cc(C(CC(=O)O)c3ccc4c(nnn4CC)c3C)ccc2C)Cc2ccccc2O1` (centres unmarked) [Example 69, 3-(3-((2-Ethyl-2,3-dihydrobenzo[f][1,4]oxazepin-4(5H)-yl)methyl)-4-methylphenyl)-3-(1-ethyl-4-methyl-1H-benzo[d][1,2,3]triazol-5-yl)propanoic Acid, Formic Acid Salt], the 50% effective concentration (EC50) fell in the range of 10 to 100 nM.

`CC[C@@H]1CN(Cc2cc(C(c3ccc(F)cc3C)C(C)(C)C(=O)O)ccc2C)Cc2ccccc2O1` (stereo partly drawn) [Example 115, 3-(3-(((R)-2-ethyl-2,3-dihydrobenzo[f][1,4]oxazepin-4(5H)-yl)methyl)-4-methylphenyl)-3-(4-fluoro-2-methylphenyl)-2,2-dimethylpropanoic Acid, Formic Acid Salt]: the EC50 was 1000 to 10000 nM.

Turning to `Cc1ccc(C(CC(=O)O)c2ccc3c(nnn3C)c2C)cc1Cn1ccnc1CC1CCCC1` (centres unmarked) [Example 148, 3-(3-((2-(Cyclopentylmethyl)-1H-imidazol-1-yl)methyl)-4-methylphenyl)-3-(1,4-dimethyl-1H-benzo[d][1,2,3]triazol-5-yl)propanoic acid], the EC50 was 100 to 1000 nM.

As to `CCc1nc(C2CCCCN2Cc2cc(C(CC(=O)O)c3ccc4c(nnn4C)c3C)ccc2C)no1` (centres unmarked) [Example 12, Ammonium 3-(1,4-dimethyl-1H-benzo[d][1,2,3]triazol-5-yl)-3-(3-((2-(5-ethyl-1,2,4-oxadiazol-3-yl)piperidin-1-yl)methyl)-4-methylphenyl)propanoate], the EC50 lay in the range of 100 to 1000 nM.

The record behind these values is patent publication US10604509B2, “Nrf2 regulators” (GlaxoSmithKline Intellectual Property Development Limited, priority 2015, dated 2020).
